Activity calls are given as the source filed them.
What was measured:
[1] = biological target: T1, Mannose-6-phosphate isomerase (Homo sapiens, UniProt P34949); assay: human PMI inhibitors, high substrate, primary screen, biochemical, fluorescence intensity, high mannose 6-phosphate (AID 1220)
T1 sequence (P34949 whole entry): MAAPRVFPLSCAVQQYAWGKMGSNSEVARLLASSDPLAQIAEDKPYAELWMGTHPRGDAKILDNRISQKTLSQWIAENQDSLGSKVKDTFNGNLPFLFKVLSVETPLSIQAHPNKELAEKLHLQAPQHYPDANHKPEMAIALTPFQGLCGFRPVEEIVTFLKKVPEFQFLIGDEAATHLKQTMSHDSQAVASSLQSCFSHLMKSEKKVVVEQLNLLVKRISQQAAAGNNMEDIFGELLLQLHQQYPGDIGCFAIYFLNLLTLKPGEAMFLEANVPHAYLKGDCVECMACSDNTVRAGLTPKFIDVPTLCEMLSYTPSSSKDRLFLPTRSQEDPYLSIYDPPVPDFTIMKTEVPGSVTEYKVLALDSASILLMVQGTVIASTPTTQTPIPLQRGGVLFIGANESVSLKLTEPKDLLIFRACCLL

[2] = biological target: Small ubiquitin-related modifier 2 (Homo sapiens, UniProt P61956); assay: SUMO2–SIM peptide binding inhibitors, dose response, selectivity assay for SUMO1 interaction inhibitor project, biochemical, fluorescence polarization, uHTS hits (AID 624385); format: functional; conditions: read-out: IC50_Mean
Streptokinase A = biological target: T2, Streptokinase A (Streptococcus pyogenes serotype M1, UniProt P10520); assay: S. pyogenes streptokinase expression inhibitors, potency, dose response, plasminogen activation absorbance, OD405 (AID 1914); format: functional, Streptococcus pyogenes M1 GAS;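 further: secreted streptokinase activity via plasminogen activation per viability signal from cell pellet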
T2 sequence (P10520 whole entry): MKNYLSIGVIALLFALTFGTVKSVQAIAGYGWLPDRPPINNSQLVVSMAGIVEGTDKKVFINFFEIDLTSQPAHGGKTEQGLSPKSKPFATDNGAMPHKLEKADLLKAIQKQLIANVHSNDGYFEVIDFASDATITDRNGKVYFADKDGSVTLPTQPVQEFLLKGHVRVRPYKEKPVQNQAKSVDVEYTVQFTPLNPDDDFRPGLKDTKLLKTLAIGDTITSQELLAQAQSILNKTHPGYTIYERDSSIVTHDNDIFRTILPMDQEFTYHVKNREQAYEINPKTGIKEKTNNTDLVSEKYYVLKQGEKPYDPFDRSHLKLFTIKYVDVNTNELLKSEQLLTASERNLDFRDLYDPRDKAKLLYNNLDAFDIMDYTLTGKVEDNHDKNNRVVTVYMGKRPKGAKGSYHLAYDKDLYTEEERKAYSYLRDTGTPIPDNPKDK

Chain of Small ubiquitin-related modifier 2 (P61956 whole entry): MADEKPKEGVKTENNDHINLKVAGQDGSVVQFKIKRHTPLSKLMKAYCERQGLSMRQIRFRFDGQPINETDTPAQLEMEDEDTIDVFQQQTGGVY

| SMILES | IC50 [1] | IC50 [2] | EC50 (Streptokinase A) |
| --- | --- | --- | --- |
| CC1(C)Cc2ccccc2C2=NNC(=O)C2=N1 | 14.1 µM (active) | – | – |
| Oc1c(Cl)cc(Cl)c(Cl)c1Cc1c(O)c(Cl)cc(Cl)c1Cl [HEXACHLOROPHENE] | – | 8.49 µM (active) | > 150 µM (not active) |
